# Results reported in ChEMBL document CHEMBL5365520, “Unlocking DCAFs To Catalyze Degrader Development: An Arena for Innovative Approaches” (J Med Chem, 2023).
# Tests used:
# [1] = Binding affinity to biotinylated human DDA1/DDB1 (398 to 701 residues)/N-terminal His-ZZ-3C-tagged DCAF15 expressed in baculovirus infected Sf21 cells immobilized on SA chip assessed as dissociation constant by SPR analysis
# [2] = Binding affinity to biotinylated human DDA1/DDB1 (398 to 701 residues)/N-terminal His-ZZ-3C-tagged DCAF15/RBM39 RRM2 domain expressed in baculovirus infected Sf21 cells immobilized on SA chip assessed as dissociation constant by SPR analysis
# [3] = molecular target: DNA damage-binding protein 1 (Homo sapiens, UniProt Q16531); experiment: Binding affinity to N-terminal His6-tagged human DDB1 expressed in baculovirus infected Hi-5 insect cells assessed as dissociation constant by SPR analysis
# Chain of DNA damage-binding protein 1 (Q16531 whole entry): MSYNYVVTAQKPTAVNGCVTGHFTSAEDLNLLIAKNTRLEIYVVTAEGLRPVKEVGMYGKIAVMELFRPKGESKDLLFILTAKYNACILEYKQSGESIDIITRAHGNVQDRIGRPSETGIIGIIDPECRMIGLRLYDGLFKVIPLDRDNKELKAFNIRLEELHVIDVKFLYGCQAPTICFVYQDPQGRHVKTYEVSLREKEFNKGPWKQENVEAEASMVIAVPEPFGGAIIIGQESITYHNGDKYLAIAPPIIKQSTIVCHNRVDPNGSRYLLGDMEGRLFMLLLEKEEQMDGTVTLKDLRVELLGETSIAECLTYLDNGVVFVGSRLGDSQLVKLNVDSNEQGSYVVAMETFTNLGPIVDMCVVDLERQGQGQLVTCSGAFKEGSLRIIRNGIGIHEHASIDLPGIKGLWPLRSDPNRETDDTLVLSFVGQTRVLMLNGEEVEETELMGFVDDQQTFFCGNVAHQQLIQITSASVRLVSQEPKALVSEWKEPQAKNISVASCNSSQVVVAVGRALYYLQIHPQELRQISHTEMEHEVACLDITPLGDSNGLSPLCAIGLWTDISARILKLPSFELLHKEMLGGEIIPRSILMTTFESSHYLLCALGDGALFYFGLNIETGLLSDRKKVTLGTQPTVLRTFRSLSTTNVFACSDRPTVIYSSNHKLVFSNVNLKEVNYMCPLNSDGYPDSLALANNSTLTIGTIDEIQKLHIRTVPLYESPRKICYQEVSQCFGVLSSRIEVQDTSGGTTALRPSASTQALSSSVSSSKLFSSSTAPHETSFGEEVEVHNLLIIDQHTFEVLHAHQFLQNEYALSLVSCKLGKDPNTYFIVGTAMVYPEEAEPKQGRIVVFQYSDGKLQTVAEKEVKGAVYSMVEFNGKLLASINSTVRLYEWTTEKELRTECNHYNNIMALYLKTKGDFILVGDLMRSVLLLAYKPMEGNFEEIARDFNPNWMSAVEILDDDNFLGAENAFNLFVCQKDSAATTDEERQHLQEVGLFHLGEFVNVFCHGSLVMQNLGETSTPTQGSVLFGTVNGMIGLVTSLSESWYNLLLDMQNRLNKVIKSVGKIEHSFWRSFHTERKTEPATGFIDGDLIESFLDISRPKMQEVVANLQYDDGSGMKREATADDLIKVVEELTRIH
# [4] = molecular target: T1, DDB1- and CUL4-associated factor 16/Bromodomain-containing protein 4 (Homo sapiens, UniProt O60885+Q9NXF7); experiment: PROTAC activity at DCAF16/BRD4 in human PC-3 cells assessed as maximal degradation relative to control; assay type: cell-based
# T1 sequence (Q9NXF7 whole entry, looked up, other chains not shown): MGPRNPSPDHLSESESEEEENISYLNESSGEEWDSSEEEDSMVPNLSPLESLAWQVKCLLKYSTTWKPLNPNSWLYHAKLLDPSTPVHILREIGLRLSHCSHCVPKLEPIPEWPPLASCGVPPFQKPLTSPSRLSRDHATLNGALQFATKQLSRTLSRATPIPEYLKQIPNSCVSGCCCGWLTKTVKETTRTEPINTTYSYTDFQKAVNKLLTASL
# [5] = molecular target: T1, DDB1- and CUL4-associated factor 16/Bromodomain-containing protein 4; experiment: PROTAC activity at DCAF16/BRD4 in human PC-3 cells assessed as reduction in protein degradation; assay type: cell-based
# [6] = molecular target: von Hippel-Lindau disease tumor suppressor/Bromodomain-containing protein 4 (Homo sapiens, UniProt O60885+P40337); experiment: PROTAC activity at VHL/BRD4 in human LNCaP cells assessed as reduction in protein degradation measured after 6 hrs by Western blot analysis; assay type: cell-based
# Chain of von Hippel-Lindau disease tumor suppressor/Bromodomain-containing protein 4 (P40337 whole entry, looked up, other chains not shown): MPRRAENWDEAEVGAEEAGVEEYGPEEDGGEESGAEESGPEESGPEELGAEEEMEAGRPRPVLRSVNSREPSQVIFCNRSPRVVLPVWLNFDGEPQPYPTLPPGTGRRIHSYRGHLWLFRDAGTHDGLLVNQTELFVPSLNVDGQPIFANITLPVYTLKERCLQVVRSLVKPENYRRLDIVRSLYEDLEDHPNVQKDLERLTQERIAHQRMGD
# [7] = molecular target: DCAF1-BRD9 (Homo sapiens, UniProt Q9H8M2+Q9Y4B6); experiment: PROTAC activity at DCAF1/BRD9 in HEK293T cells co expressing HiBit/FF/CAS9 assessed as reduction of protein degradation measured after 6 hrs by immunoblotting analysis; assay type: cell-based
# Chain of DCAF1-BRD9 (Q9H8M2 whole entry): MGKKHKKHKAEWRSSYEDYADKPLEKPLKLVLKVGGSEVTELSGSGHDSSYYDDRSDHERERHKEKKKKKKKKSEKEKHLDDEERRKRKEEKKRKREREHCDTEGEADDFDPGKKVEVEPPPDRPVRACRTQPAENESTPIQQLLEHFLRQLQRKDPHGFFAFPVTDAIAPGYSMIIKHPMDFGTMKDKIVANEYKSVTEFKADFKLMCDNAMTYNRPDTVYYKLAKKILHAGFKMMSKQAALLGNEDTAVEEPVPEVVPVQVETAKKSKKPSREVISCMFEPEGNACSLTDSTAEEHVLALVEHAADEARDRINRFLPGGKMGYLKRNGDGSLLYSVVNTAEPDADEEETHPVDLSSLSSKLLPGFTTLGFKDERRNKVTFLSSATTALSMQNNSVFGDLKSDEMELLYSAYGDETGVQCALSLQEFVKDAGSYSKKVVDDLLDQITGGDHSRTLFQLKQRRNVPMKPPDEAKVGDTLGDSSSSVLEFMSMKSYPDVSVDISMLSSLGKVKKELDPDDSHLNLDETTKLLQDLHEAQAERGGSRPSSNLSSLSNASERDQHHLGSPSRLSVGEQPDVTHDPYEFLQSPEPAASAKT
# Chain of DCAF1-BRD9 (Q9Y4B6 whole entry): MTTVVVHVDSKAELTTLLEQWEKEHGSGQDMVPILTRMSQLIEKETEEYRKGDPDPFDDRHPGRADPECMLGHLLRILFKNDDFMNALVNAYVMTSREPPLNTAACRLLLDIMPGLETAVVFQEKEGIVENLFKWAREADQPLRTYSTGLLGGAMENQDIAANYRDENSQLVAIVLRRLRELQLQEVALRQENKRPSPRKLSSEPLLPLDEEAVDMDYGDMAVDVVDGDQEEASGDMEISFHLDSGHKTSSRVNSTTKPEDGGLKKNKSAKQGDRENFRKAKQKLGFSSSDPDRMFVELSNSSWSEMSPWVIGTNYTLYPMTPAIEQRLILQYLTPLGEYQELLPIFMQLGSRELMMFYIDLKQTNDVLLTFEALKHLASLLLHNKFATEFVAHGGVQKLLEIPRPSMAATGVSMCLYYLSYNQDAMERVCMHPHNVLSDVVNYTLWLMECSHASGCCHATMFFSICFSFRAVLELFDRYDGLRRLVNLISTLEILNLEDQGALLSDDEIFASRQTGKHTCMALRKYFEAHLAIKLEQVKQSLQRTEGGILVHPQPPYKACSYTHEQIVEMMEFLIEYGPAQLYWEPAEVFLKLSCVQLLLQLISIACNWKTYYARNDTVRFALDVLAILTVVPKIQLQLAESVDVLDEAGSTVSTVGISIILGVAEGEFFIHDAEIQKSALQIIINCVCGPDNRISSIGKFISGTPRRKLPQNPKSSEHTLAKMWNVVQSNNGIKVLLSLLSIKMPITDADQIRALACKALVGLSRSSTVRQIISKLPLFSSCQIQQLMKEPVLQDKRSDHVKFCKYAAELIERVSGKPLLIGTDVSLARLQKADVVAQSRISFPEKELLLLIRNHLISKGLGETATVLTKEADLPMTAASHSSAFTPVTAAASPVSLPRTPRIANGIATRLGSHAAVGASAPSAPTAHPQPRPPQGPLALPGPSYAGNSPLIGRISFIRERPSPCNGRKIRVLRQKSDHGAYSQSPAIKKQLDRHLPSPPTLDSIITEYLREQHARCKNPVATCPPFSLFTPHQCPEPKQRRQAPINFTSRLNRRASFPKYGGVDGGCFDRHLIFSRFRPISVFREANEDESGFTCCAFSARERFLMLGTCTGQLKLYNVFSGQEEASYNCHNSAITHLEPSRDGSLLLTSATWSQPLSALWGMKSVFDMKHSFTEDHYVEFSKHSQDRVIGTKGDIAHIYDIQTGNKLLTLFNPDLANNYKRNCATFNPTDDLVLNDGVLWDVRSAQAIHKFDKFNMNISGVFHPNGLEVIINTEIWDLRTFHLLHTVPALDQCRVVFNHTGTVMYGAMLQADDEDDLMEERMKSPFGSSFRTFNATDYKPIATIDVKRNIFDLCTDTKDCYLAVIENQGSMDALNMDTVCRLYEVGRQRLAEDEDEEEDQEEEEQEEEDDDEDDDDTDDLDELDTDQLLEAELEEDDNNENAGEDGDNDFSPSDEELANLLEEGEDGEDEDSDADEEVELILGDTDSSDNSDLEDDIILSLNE
# [8] = molecular target: DCAF11-BRD4 (Homo sapiens) (UniProt O60885+Q8TEB1); experiment: PROTAC activity at DCAF11/BRD4 in HEK293T cells assessed as reduction of protein degradation at 1 uM measured after 24 hrs relative to control; assay type: cell-based; parameters: scale not given: the % may be the effect or the level left
# Chain of DCAF11-BRD4 (Homo sapiens) (Q8TEB1 whole entry, looked up, other chains not shown): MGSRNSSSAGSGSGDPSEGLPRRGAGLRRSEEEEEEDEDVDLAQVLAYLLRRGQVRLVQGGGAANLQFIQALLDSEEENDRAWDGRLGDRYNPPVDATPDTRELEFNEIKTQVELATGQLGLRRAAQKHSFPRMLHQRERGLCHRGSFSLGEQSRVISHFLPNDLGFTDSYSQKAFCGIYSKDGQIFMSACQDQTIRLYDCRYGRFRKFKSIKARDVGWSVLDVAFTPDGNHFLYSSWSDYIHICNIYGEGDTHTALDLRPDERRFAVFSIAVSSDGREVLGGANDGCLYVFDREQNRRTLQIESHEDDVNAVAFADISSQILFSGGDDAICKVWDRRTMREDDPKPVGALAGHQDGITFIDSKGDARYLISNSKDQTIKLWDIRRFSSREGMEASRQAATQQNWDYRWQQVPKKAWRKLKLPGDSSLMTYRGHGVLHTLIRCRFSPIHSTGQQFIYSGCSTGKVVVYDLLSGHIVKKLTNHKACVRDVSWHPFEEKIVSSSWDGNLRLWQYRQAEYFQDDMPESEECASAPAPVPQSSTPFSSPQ
structure (smiles),measurement,setting,value
NS(=O)(=O)c1ccc(S(=O)(=O)Nc2cccc3c(Cl)c[nH]c23)cc1 [INDISULAM],Kd,[1],> 50000 nM
same,Kd,[2],135 nM
Cc1cc(NCCOCCOCCOCCOCCOCCN)ccc1C(=O)Nc1nc(C)c(C)s1,Kd,[3],< 20000 nM
Cc1sc2c(c1C)C(c1ccc(C#CCN)cc1)=N[C@@H](CC(=O)OC(C)(C)C)c1nnc(C)n1-2,Emax,[4],84%
same,DC50,[5],1.4 nM
Cc1sc2c(c1C)C(c1ccc(-c3ccc(C(=O)NCc4ccc(S(=O)(=O)Nc5ccc(C)c6c(C#N)c[nH]c56)cc4)cc3)cc1)=N[C@@H](CC(=O)OC(C)(C)C)c1nnc(C)n1-2,EC50,[6],0.15 nM
COc1cc(-c2cncc3c(=O)n(C)ccc23)c(OC)cc1CN1CCC(OCCCCCC(=O)N2CCN(c3ccc4c(NCCN)nc(C5(c6ccc(Cl)cc6)CCCCC5)nc4c3)CC2)CC1,EC50,[7],~500 nM
Cc1sc2c(c1C)C(c1ccc(-c3cccc(NC(=O)c4cn5ccccc5n4)c3)cc1)=N[C@@H](CC(N)=O)c1nnc(C)n1-2,Activity,[8],95%
